The record followed here is the OligoGym collection.

Several values for one entry are separate records, joined by “and”; a condition that tells them apart may be missing. Equal values may be shown once. After the bases stand the sugars from the 5' end (letter, count) and the backbone: PS all phosphorothioate, else s phosphorothioate and o phosphodiester by linkage. Methylation of C is not given here. e = 2'-O-(2-methoxyethyl) (MOE); k = constrained ethyl (cEt); d = 2'-deoxy (DNA)

This data set has as its target IRF4. The note with it: ASO.

Consider “TAGTATGAGAAACGGC (sugars kkdddddddddkekek, PS)”, for which the target mRNA inhibition (MM.1R, 1 µM) is 27%.

As for ATCCCTTATTAGACTG (sugars k3 d10 k3, PS), the target mRNA inhibition (MM.1R, 1 µM) was -7%.

Turning to AGTCAAGCCCCAAGCC (sugars k3 d10 k3, PS), where the note is “SK-MEL-28, 4 µM”, the target mRNA inhibition stood at 13%.

In the case of ATTCAATGCACCCCCC (sugars k3 d10 k3, PS), the target mRNA inhibition (MM.1R, 1 µM) is 2%.

ACACACATTAAAGGGT (sugars k3 d10 k3, PS): the target mRNA inhibition (SK-MEL-28, 4 µM) worked out at 43%.

On to CTCCCAGAGTTGTTCC (sugars k3 d10 k3, PS), for which the target mRNA inhibition (SK-MEL-28, 4 µM) came out at 34%.

For the sequence GCTTATCAATGCCAAG (sugars k3 d10 k3, PS), where the note is “SK-MEL-28, 4 µM”, the target mRNA inhibition was found to be 40%.

On to ACACTGGATCTGAATT (sugars k3 d10 k3, PS), for which the target mRNA inhibition (SK-MEL-28, 4 µM) was found to be 46%.

As for GGAACTCATAGGTGTA (sugars k3 d10 k3, PS), the target mRNA inhibition is, setting by setting: (MM.1R, 0.0625 µM) 11% and 32%; (MM.1R, 0.25 µM) 26% and 42%; (MM.1R, 1 µM) 53% and 65%; (MM.1R, 4 µM) 75% and 80%.

As to GATCATCAACTTCTTA (sugars k3 d10 k3, PS), the target mRNA inhibition (SK-MEL-28, 4 µM) was 47%.

On to CTAACAGATAACGAGG (sugars k3 d10 k3, PS), for which the target mRNA inhibition (SK-MEL-28, 4 µM) came out at 23%.

Turning to “GTGATAGCTGAGCTGA (sugars kkddddddddddkeke, PS)”, the target mRNA inhibition (MM.1R, 1 µM) came to 35%.

For the sequence AAGAGGTGCGAGTACC (sugars k3 d10 k3, PS), the target mRNA inhibition (SK-MEL-28, 4 µM) was 34%.

GTCGAACCTCTGGTTC (sugars k3 d10 k3, PS): the target mRNA inhibition (SK-MEL-28, 4 µM) was -10%.

For “ACACTTTTAGAGAGGA (sugars kkdddddddddkekek, PS)”, the target mRNA inhibition (MM.1R, 1 µM) is 27%.

Consider CATACCTACAAGCAGT (sugars k3 d10 k3, PS), for which the target mRNA inhibition (SK-MEL-28, 4 µM) is 43%.

GGGTTACGCTTATTTT (sugars k3 d10 k3, PS): the target mRNA inhibition (SK-MEL-28, 4 µM) amounted to 65%.

Consider GTCGCGCAAGTCTACA (sugars k3 d10 k3, PS), for which the target mRNA inhibition (MM.1R, 1 µM) is 4% and 16%.

For GCCTTCAGCGGTTTCC (sugars k3 d10 k3, PS), the target mRNA inhibition (MM.1R, 1 µM) turned out to be 4%.

AAACGGACTGGAACAT (sugars k3 d10 k3, PS): the target mRNA inhibition (SK-MEL-28, 4 µM) turned out to be 7%.

CCCGGCCGATCATCAA (sugars k3 d10 k3, PS): the target mRNA inhibition (MM.1R, 1 µM) is 23%.

Consider CTAGAAAGAGCTGGTA (sugars k3 d10 k3, PS), for which the target mRNA inhibition (SK-MEL-28, 4 µM) came out at 15%.

Take CATAGGTCCTTCAGAT (sugars k3 d10 k3, PS): the target mRNA inhibition (MM.1R, 1 µM) was -5%.

Take GCATAAAAGGTTCCTG (sugars k3 d10 k3, PS): the target mRNA inhibition (SK-MEL-28, 4 µM) was found to be 26%.

Turning to GTTCATACCCAATAGT (sugars k3 d10 k3, PS), for the setting “SK-MEL-28, 4 µM”, the target mRNA inhibition was 66%.

With GTCATTGCTCTTGTTC (sugars k3 d10 k3, PS), the target mRNA inhibition (MM.1R, 1 µM) was determined as 18%.

Turning to “AGTATGAGAAACGGCC (sugars kdddddddddkekeke, PS)”, where the note is “MM.1R, 1 µM”, the target mRNA inhibition is 4%.

In the case of GGTATTTTTCCGTTCC (sugars k3 d10 k3, PS), the target mRNA inhibition (MM.1R, 1 µM) came out at 30%.

With GGAGAGGGCGACGACA (sugars k3 d10 k3, PS), the target mRNA inhibition (MM.1R, 1 µM) is -1%.

For “AGCATTTTATCATCCG (sugars kkddddddddddkeke, PS)”, the target mRNA inhibition (MM.1R, 1 µM) was 33%.

On to “AAGTTCATGTAAAGTC (sugars kddddddddddkekek, PS)”, for which the target mRNA inhibition (MM.1R, 1 µM) is 14% and 6%.

Consider “AGTTGTAAATGAGTCG (sugars kddddddddddkekek, PS)”, for which the target mRNA inhibition (MM.1R, 1 µM) was 44%.

For AACTATCTTATTCCTC (sugars k3 d10 k3, PS), under “SK-MEL-28, 4 µM”, the target mRNA inhibition stood at 30%.

Consider GTATTTCATAGCTAGT (sugars k3 d10 k3, PS), for which, under “SK-MEL-28, 4 µM”, the target mRNA inhibition was 69%.

Turning to ACGAAGGGCAGTGCCT (sugars k3 d10 k3, PS), where the note is “MM.1R, 1 µM”, the target mRNA inhibition is -5%.

For ATAAACACCCCTTCTT (sugars k3 d10 k3, PS), the target mRNA inhibition (SK-MEL-28, 4 µM) amounted to 30%.

For the sequence GAGAAAACCCCCCTCT (sugars k3 d10 k3, PS), the target mRNA inhibition (SK-MEL-28, 4 µM) came to 17%.

For the sequence “GCAGTGATGTCAGGTT (sugars kkdddddddddkdkdk, PS)”, the target mRNA inhibition by setting is: (MM.1R, 0.074 µM) 15%; (MM.1R, 0.222 µM) 32%; (MM.1R, 0.666 µM) 58%; (MM.1R, 1 µM) 53%; (MM.1R, 2 µM) 79%.

Take TAGTAGGTAAGATCTC (sugars k3 d10 k3, PS): the target mRNA inhibition (SK-MEL-28, 4 µM) came to 23%.

For GGCCACCGCACGCAAG (sugars k3 d10 k3, PS), the target mRNA inhibition (MM.1R, 1 µM) was -24%.

With GAAATGTGTTGGAAGA (sugars k3 d10 k3, PS), under “SK-MEL-28, 4 µM”, the target mRNA inhibition came out at 68%.

Regarding GAGAGACGAAAACAGC (sugars k3 d10 k3, PS), the target mRNA inhibition (MM.1R, 1 µM) was determined as 5%.

As to “CAAGCAGTGATGTCAG (sugars k2 d9 e3 k2, PS)”, the target mRNA inhibition (MM.1R, 1 µM) was 15% and 8%.

On to GAAACGGCCTGGAGGT (sugars k3 d10 k3, PS), for which, for the setting “MM.1R, 1 µM”, the target mRNA inhibition was found to be 17%.

As for CGCGACTCTGTCAGTT (sugars k3 d10 k3, PS), the target mRNA inhibition (MM.1R, 1 µM) worked out at 8%.
